Data on 78 compounds can be found in paper PMC12040169 (PLOS Biology, 2025).

The term viability denotes a read-out of living cells in per cent, often relative to untreated cells.

The structures appear in SMILES notation.

A short description of the first data set: in vitro. To be noted: human, hela cells, % viability.
Take `COC(=O)c1sc2ncccc2c1NS(=O)(=O)Cc1ccccc1[N+](=O)[O-]` [CBK049974]: the viability at 28.5 h, 10 µM amounted to 102%. As to `CC(C)C(=O)Nc1ccc2c(-c3ccccc3)ccnc2n1` [CBK073671], the viability at 28.5 h, 10 µM turned out to be 101%. As to `Cc1ccc(N2C(=O)c3ccccc3C2Nc2ccccc2)nc1` (stereo not drawn) [CBK113238], the viability at 28.5 h, 10 µM came to 101%. On to `Cc1c(S(=O)(=O)Nc2nnn[nH]2)sc2ccc(Cl)cc12` [CBK062392], for which the viability at 28.5 h, 10 µM is 91.7%. For `O=C(c1ccc2c(c1)CCCO2)N(Cc1ccccn1)CC1CCCO1` (stereo not drawn) [CBK307488], the viability at 28.5 h, 10 µM came out at 84.9%.

Consider `CN1C[C@@H](NC(=O)c2ccc3c(c2)OCO3)C[C@H]1c1nc(-c2ccc(Cl)cc2)no1` [CBK288854], for which the viability at 28.5 h, 10 µM stood at 90.6%. Take `O=C(CC1CCS(=O)(=O)C1)NC1(c2ccc(Cl)cc2)CC1` (stereo not drawn) [CBK282773]: the viability at 28.5 h, 10 µM was 97.6%. `COc1cc(/C=C2\N=C(c3cccs3)OC2=O)ccc1OCc1ccc(Cl)cc1` [CBK263176]: the viability at 28.5 h, 10 µM was 101%. Same read-out and setting: to `OC(COc1ccc2c(c1)OCO2)CN1CCCN(c2nc3ccc(Cl)cc3s2)CC1` (stereo not drawn) [CBK074646] belongs 102%; to `NC(=O)c1ccccc1NC(=O)CCN1C(=O)c2cccc([N+](=O)[O-])c2C1=O` [CBK263118], 87.4%; to `Cc1c(C#N)c2ccc(O)c(CN(C)C)c2n1-c1ccccc1` [CBK094247C], 98.2%. Still for that read-out and setting: as for `CC(c1ccc(F)c(F)c1)N(C)C(=O)Cn1ncn(C)c1=O` (stereo not drawn) [CBK305083], the figure is 80.2%. With `O=C(C1CC1)N1CC(n2nc(-c3cccs3)ccc2=O)C1` [CBK284650], the viability at 28.5 h, 10 µM amounted to 85.1%.

With `Cc1nn(Cc2c(F)cccc2Cl)c(C)c1NC(=S)Nc1ccc(S(N)(=O)=O)cc1` [CBK267121], the viability at 28.5 h, 10 µM was 101%.

For the compound `CC(C)(C)OC(=O)N1CCC(OCc2cn(-c3ccc(-n4cncn4)cc3)nn2)CC1` [CBK149477], the viability at 28.5 h, 10 µM worked out at 87.1%. With `NC(=O)CN1CCN(c2nccnc2OCc2ccc(Cl)c(Cl)c2)CC1` [CBK083079T], the viability at 28.5 h, 10 µM is 111%. With `O=C(c1ccncc1)N1CCCC(c2cc3ccccc3cn2)C1` (stereo not drawn) [CBK285166], the viability at 28.5 h, 10 µM came out at 87%. As to `O=C(c1cscn1)N1CCc2ccccc2C1` [CBK200342], the viability at 28.5 h, 10 µM came out at 96.6%. Turning to `CCOC(=O)[C@H]1CC[C@]2(CC1)CNC(=O)c1ccccc1O2` [CBK284893], the viability at 28.5 h, 10 µM stood at 92.5%. In the case of `CN(C)CCNC(=O)c1cc(-c2ccc(Cl)cc2)on1` [CBK116711T], the viability at 28.5 h, 10 µM was 89.7%. `Cn1c(=O)n(CC(=O)NCc2cccc(F)c2)c2cccnc21` [CBK283911]: the viability at 28.5 h, 10 µM amounted to 105%.

As to `COc1ccc(CN2CCN(C(=O)c3cccs3)CC2)cc1OC` [CBK074410], the viability at 28.5 h, 10 µM was 104%. As for `NC(=O)c1ccc(NC(=O)COc2ccccc2Cl)cc1` [CBK262961], the viability at 28.5 h, 10 µM stood at 109%. On the same count and under the same terms, to `COc1cc(/C=C2\SC(=N)NC2=O)cc(Br)c1OS(=O)(=O)c1ccc(C)cc1` [CBK263609] belongs 95.1%. `Cc1ccc(C(C)(C)C(=O)N2CC(C(=O)N3CCN(C)CC3)C2)cc1` [CBK281371]: the viability at 28.5 h, 10 µM is 99.4%. For `O=C(NCCN1CCCCC1)C1CC(=O)N(c2ccccc2F)C1` (stereo not drawn) [CBK305148], the viability at 28.5 h, 10 µM stood at 86.8%.

Regarding `O=C(CN1CCCC1Cn1cncn1)NCCc1ccsc1` (stereo not drawn) [CBK305113], the viability at 28.5 h, 10 µM is 85.2%. On the same count and under the same terms, to `CC(C)CN1C(=O)COC[C@@H]1[C@H](O)c1ccc(NC(=O)C2CCCCC2)cc1` [CBK289687] belongs 106%; to `Cc1ccccc1OC(C)C(=O)NCCCN1CCOCC1` (stereo not drawn) [CBK268628], 112%; to `O=C(Cn1c(C2CCNCC2)cc2cccnc21)NC1CCCC1` [CBK285002], 104%. For `COc1ccc(S(=O)(=O)Nc2nccnc2-c2ccc3[nH]ccc3c2)cc1` [CBK050805], the viability at 28.5 h, 10 µM came to 91.6%. With `O=C(O)C(c1c[nH]c2ccccc12)N1CCN(Cc2ccncc2)CC1` (stereo not drawn) [CBK286624], the viability at 28.5 h, 10 µM was determined as 76.2%. As for `CS(=O)(=O)N1CCCc2cc(-c3csc(-c4cnccn4)n3)ccc21` [CBK305239], the viability at 28.5 h, 10 µM was determined as 95.4%. For `CN(C(=O)C1CCC1)c1nc2c(s1)CCc1c-2cnn1C` [CBK281931], the viability at 28.5 h, 10 µM was 75.9%. For `CC(=O)N[C@H](CC(N)=O)C(=O)N1CCC2(C/C=C/C[C@@H]3COCC[C@@H]3NC(=O)[C@@H](CC(C)C)NC2=O)CC1` [CBK292207], the viability at 28.5 h, 10 µM turned out to be 106%.

On to `CNS(=O)(=O)c1ccc2c3c(cccc13)C(=O)N2` [CBK287275], for which the viability at 28.5 h, 10 µM turned out to be 89.7%. Turning to `Cc1[nH]c(=O)[nH]c(=S)c1C(=O)NCc1ccc(Cl)cc1` [CBK115489], the viability at 28.5 h, 10 µM worked out at 106%.

As to `CC(C)(C)SCCNC(=S)NCCO` [CBK020686], the viability at 28.5 h, 10 µM was determined as 98.7%. Take `CSCCCNC(=O)c1ccccc1Nc1cccc(C(F)(F)F)c1` [CBK149551]: the viability at 28.5 h, 10 µM amounted to 71.3%. Turning to `COc1cc(CNc2cc(-c3ccco3)ncn2)cc(OC)c1OC` [CBK091181], the viability at 28.5 h, 10 µM is 106%. On the same count and under the same terms, to `Nc1ncc(-c2cccc3cccnc23)nc1NC1CCCCC1` [CBK063613] belongs 107%; to `O=C1CNC(=O)C2(C/C=C/C[C@H]3COCC[C@H]3N1)CCN(C(=O)c1ccc(=O)[nH]n1)CC2` [CBK292161], 110%. With `CN(C)c1cccc(-c2cncc(Nc3cccc(C(F)(F)F)c3)n2)c1` [CBK065786], the viability at 28.5 h, 10 µM stood at 100%. Turning to `COc1ccccc1CC(=O)N(Cc1cccnc1)C[C@@H]1CCC(=O)N1` [CBK307504], the viability at 28.5 h, 10 µM is 95.7%. Take `O=C(O)CC1(CNC(=O)Cn2nc(-c3ccccc3)ccc2=O)CCCCC1` [CBK286866]: the viability at 28.5 h, 10 µM is 84.1%.

For the compound `O=C(c1ccco1)N1CCC(c2onc3c2CCCCC3)CC1` [CBK284486], the viability at 28.5 h, 10 µM worked out at 91%.

In the case of `CC1CCc2n[nH]c(C(=O)N3CCc4ncc(Cl)cc4C3)c2C1` (stereo not drawn) [CBK284874], the viability at 28.5 h, 10 µM was determined as 93.6%. Consider `COc1ccc(N(CC(=O)Nc2cccnc2)S(=O)(=O)c2ccccc2)cc1` [CBK262236], for which the viability at 28.5 h, 10 µM is 91.6%.

As for `O=C(O)COCC(=O)N1CCN(CCc2ccccc2)CC1` [CBK270298], the viability at 28.5 h, 10 µM turned out to be 107%. Regarding `CN(C)c1cccc(-c2cncc(NCCCN3CCOCC3)n2)c1` [CBK065635], the viability at 28.5 h, 10 µM worked out at 94.8%.

As for `COc1ccccc1C(=O)NCC(=O)N/N=C/c1ccc(N(C)C)cc1` [CBK261989], the viability at 28.5 h, 10 µM is 104%. The same measure, in the same setting: as for `Cc1cc(CN2CCN(S(=O)(=O)c3ccc(C(=O)c4ccccc4)cc3)CC2)cc(C)c1O` [CBK062933], the figure is 90.4%; as for `CC(C)Cn1c(=O)[nH]c2ncc(-c3ccco3)nc21` [CBK064353], 91.9%. Consider `Cc1ccc(OCc2ccc(Cl)s2)c(Br)c1` [CBK002840], for which the viability at 28.5 h, 10 µM is 79%.

On to `Cc1ccccc1-n1ncc2c(=O)n(CC(=O)Nc3ccccc3)cnc21` [CBK287689], for which the viability at 28.5 h, 10 µM stood at 98.4%.

On to `CONc1nc(/N=C/N(C)C)nc2c1ncn2C1CC(O)C(CO)O1` (stereo not drawn) [CBK201335], for which the viability at 28.5 h, 10 µM came to 92.7%.

In the case of `CCCc1nc2oc3c(-c4ccccc4)c(C(=O)O)c(C)nc3c2c2c1COC(C)(C)C2` [CBK264044], the viability at 28.5 h, 10 µM worked out at 89.2%.

On to `Cc1csc2c(C3CCN(C(=O)c4cccnc4)CC3)nc(C)n12` [CBK285242], for which the viability at 28.5 h, 10 µM was 85.1%.

With `Cc1cc(NC(=O)Cc2cn3ccsc3n2)ccc1N1CCCC1` [CBK306080], the viability at 28.5 h, 10 µM was determined as 79.8%. For `CCCc1ccc(-c2nccn2CCn2cc(C)nn2)o1` [CBK307688], the viability at 28.5 h, 10 µM stood at 101%. Turning to `Cn1c(=O)[nH]c(=O)c2c1nc(N1CCN(Cc3ccccc3)CC1)n2CCCc1ccccc1` [CBK269529], the viability at 28.5 h, 10 µM was found to be 104%. Turning to `CN(C)CC(C)(C)CNC(=O)c1cc(-c2ccc(Cl)cc2)on1` [CBK116561], the viability at 28.5 h, 10 µM amounted to 101%. As to `Cc1c(Cl)cccc1S(=O)(=O)Nc1nc(-c2cccc([N+](=O)[O-])c2)cs1` [CBK000994], the viability at 28.5 h, 10 µM was determined as 107%. For the compound `CCC(CN1CCOCC1)NC(=O)Cc1c(C)[nH]c2ccc(F)cc12` (stereo not drawn) [CBK282774], the viability at 28.5 h, 10 µM came to 92.6%.

Consider `COc1ccc(C(C)C)cc1-c1cnc2[nH]c(=O)n(-c3ccc4[nH]ccc4c3)c2n1` [CBK064714], for which the viability at 28.5 h, 10 µM is 90.7%. On the same count and under the same terms, as for `Cc1cnn(C2CCN(C(=O)NC(C)C3OCCc4sccc43)C2)c1` (stereo not drawn) [CBK304159], the figure is 96.8%. Regarding `CC(=O)Nc1ccc(-c2csc(Nc3ccc(S(=O)(=O)Nc4nc(C)cc(C)n4)cc3)n2)cc1` [CBK267295], the viability at 28.5 h, 10 µM was 87%. Consider `C/C(=C\C(=O)NC1CC(C)(C)NC(C)(C)C1)NC1CC(C)(C)NC(C)(C)C1` [CBK261982], for which the viability at 28.5 h, 10 µM was 113%. On to `O=C(C[C@@H]1O[C@H](CNS(=O)(=O)c2ccc(Cl)cc2)[C@@H](O)[C@H]1O)N1CCCC1` [CBK288911], for which the viability at 28.5 h, 10 µM came to 94.2%.

`O=C(O)c1cccc(-n2ncc(-c3ccsc3)n2)c1` [CBK112859]: the viability at 28.5 h, 10 µM came out at 100%.

Regarding `CCS(=O)(=O)N1C2CCC(C2)[C@H]1COc1ccc(F)cc1` (stereo partly drawn) [CBK285280], the viability at 28.5 h, 10 µM turned out to be 109%. The same measure, in the same setting: to `O=S(=O)(O)c1ccc(N/N=C/c2cccc(/C=N/Nc3ccc(S(=O)(=O)O)cc3)c2)cc1` [CBK278204N] belongs 89%. As to `CC(C)c1ccc(S(=O)(=O)NCCC#N)cc1` [CBK044722], the viability at 28.5 h, 10 µM was found to be 105%. Take `CCS(=O)(=O)Nc1cc(N2CCNCC2)c2occc2c1` [CBK059429C]: the viability at 28.5 h, 10 µM was 118%. For the compound `Cc1nnnn1-c1cc(NC(=O)N(C)C(C)C)ccc1F` [CBK304708], the viability at 28.5 h, 10 µM turned out to be 93.2%. Take `NS(=O)(=O)c1ccc(C(=O)NCCc2c[nH]c3ccc(Cl)cc23)cc1` [CBK159780]: the viability at 28.5 h, 10 µM amounted to 95.2%. Consider `COc1cccc(-c2nnc(SCc3nc4ccccc4[nH]3)n2N)c1` [CBK267549], for which the viability at 28.5 h, 10 µM was 91%.

Still in this data set, the particulars now being: human, hela cells, % viability, bulk resorufin, single well.
As to `Cc1cccc(N2C(=O)NC(=O)C(CCc3ccccn3)(CCc3ccccn3)C2=O)c1C` [CBK269075], the viability at 28.5 h, 10 µM is 91.7%.
